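Step 1: Grow cells in 96-well plates. Step 2: Expose to compound for 48 hours at 5 concentrations. Step 3: Interpolate endpoints linearly; if unreached, use highest concentration. The concentration for 50% growth inhibition is given as GI50.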 Active and inactive are the calls of the source. Rule as the data show it: active = GI50 up to about 1.1 µM and inactive = higher.
Legend:
Test in all cases: inhibition of tumour cell growth, NCI panel, 48 h
[1] = system: 786-0
[2] = system: A498
[3] = system: A549
[4] = system: ACHN
[5] = system: BT-549
[6] = system: CAKI-1
[7] = system: CCRF-CEM
[8] = system: COLO 205
[9] = system: DU-145
[10] = system: EKVX
[11] = system: HCC 2998
[12] = system: HCT-116
[13] = system: HCT-15
[14] = system: HL-60
[15] = system: HOP-62
[16] = system: HOP-92
[17] = system: HT-29
[18] = system: Hs-578T
[19] = system: IGROV-1
[20] = system: K562
[21] = system: KM12
[22] = system: LOX IMVI
[23] = system: M14
[24] = system: MCF7
[25] = system: MDA-MB-231
[26] = system: MDA-MB-435
[27] = system: MDA-N
[28] = system: MOLT-4
[29] = system: Malme-3M
[30] = system: NCI-H226
[31] = system: NCI-H23
[32] = system: NCI-H460
[33] = system: NCI-H522
[34] = system: NCI/ADR-RES
[35] = system: OVCAR-3
[36] = system: OVCAR-4
[37] = system: OVCAR-5
[38] = system: OVCAR-8
[39] = system: PC-3
[40] = system: RPMI-8226
[41] = system: RXF 393
[42] = system: SF-268
[43] = system: SF-295
[44] = system: SF-539
[45] = system: SK-MEL-28
[46] = system: SK-MEL-2
[47] = system: SK-MEL-5
[48] = system: SK-OV-3
[49] = system: SN12C
[50] = system: SNB-19
[51] = system: SW-620
[52] = system: T47D
[53] = system: TK-10
[54] = system: U-251
[55] = system: UACC-257
[56] = system: UACC-62
[57] = system: UO-31
[58] = system: SNB-75

C=CCCCCOC1C=CC(OC(C)=O)C(COC(C)=O)O1 (stereo not given)
GI50 [1]: > 100 µM (inactive)
GI50 [2]: > 100 µM (inactive)
GI50 [3]: > 100 µM (inactive)
GI50 [4]: > 100 µM (inactive)
GI50 [5]: > 100 µM (inactive)
GI50 [6]: > 100 µM (inactive)
GI50 [7]: > 100 µM (inactive)
GI50 [8]: > 100 µM (inactive)
GI50 [9]: > 100 µM (inactive)
GI50 [10]: > 100 µM (inactive)
GI50 [11]: > 100 µM (inactive)
GI50 [12]: > 100 µM (inactive)
GI50 [13]: > 100 µM
GI50 [14]: > 100 µM (inactive)
GI50 [15]: > 100 µM (inactive)
GI50 [16]: > 100 µM (inactive)
GI50 [17]: > 100 µM (inactive)
GI50 [18]: 0.324 µM (active)
GI50 [19]: > 100 µM (inactive)
GI50 [20]: > 10 µM (inactive)
GI50 [21]: > 100 µM (inactive)
GI50 [22]: > 100 µM (inactive)
GI50 [23]: > 100 µM (inactive)
GI50 [24]: > 100 µM (inactive)
GI50 [25]: > 100 µM (inactive)
GI50 [26]: > 100 µM (inactive)
GI50 [27]: > 100 µM (inactive)
GI50 [28]: > 100 µM (inactive)
GI50 [29]: > 100 µM (inactive)
GI50 [30]: > 100 µM (inactive)
GI50 [31]: > 100 µM (inactive)
GI50 [32]: > 100 µM (inactive)
GI50 [33]: > 100 µM (inactive)
GI50 [34]: > 100 µM (inactive)
GI50 [35]: > 100 µM (inactive)
GI50 [36]: > 100 µM (inactive)
GI50 [37]: > 100 µM (inactive)
GI50 [38]: > 100 µM (inactive)
GI50 [39]: > 100 µM (inactive)
GI50 [40]: > 100 µM (inactive)
GI50 [41]: > 100 µM (inactive)
GI50 [42]: > 100 µM (inactive)
GI50 [43]: > 100 µM (inactive)
GI50 [44]: > 100 µM (inactive)
GI50 [45]: > 100 µM (inactive)
GI50 [46]: > 100 µM (inactive)
GI50 [47]: > 100 µM (inactive)
GI50 [48]: > 100 µM (inactive)
GI50 [49]: > 100 µM (inactive)
GI50 [50]: > 100 µM (inactive)
GI50 [51]: > 100 µM (inactive)
GI50 [52]: > 100 µM (inactive)
GI50 [53]: > 100 µM (inactive)
GI50 [54]: > 100 µM (inactive)
GI50 [55]: > 100 µM (inactive)
GI50 [56]: > 100 µM (inactive)
GI50 [57]: > 100 µM (inactive)

CC1=C(C(=O)NNC(=O)c2ccccc2)CC(C(=O)NNC(=O)c2ccccc2)=C(C)N1
GI50 [1]: > 100 µM (inactive)
GI50 [2]: > 100 µM (inactive)
GI50 [3]: > 100 µM (inactive)
GI50 [4]: > 100 µM (inactive)
GI50 [5]: > 100 µM (inactive)
GI50 [6]: > 100 µM (inactive)
GI50 [7]: > 100 µM (inactive)
GI50 [8]: > 100 µM (inactive)
GI50 [9]: > 100 µM (inactive)
GI50 [10]: > 100 µM (inactive)
GI50 [11]: > 100 µM (inactive)
GI50 [12]: > 100 µM (inactive)
GI50 [13]: > 100 µM
GI50 [14]: > 100 µM (inactive)
GI50 [15]: > 100 µM (inactive)
GI50 [16]: > 100 µM (inactive)
GI50 [17]: > 100 µM (inactive)
GI50 [18]: > 100 µM (inactive)
GI50 [19]: > 100 µM (inactive)
GI50 [20]: > 100 µM (inactive)
GI50 [21]: > 100 µM (inactive)
GI50 [22]: > 100 µM (inactive)
GI50 [23]: > 100 µM (inactive)
GI50 [24]: > 100 µM (inactive)
GI50 [25]: > 100 µM (inactive)
GI50 [26]: > 100 µM (inactive)
GI50 [27]: > 100 µM (inactive)
GI50 [28]: > 100 µM (inactive)
GI50 [30]: > 100 µM (inactive)
GI50 [31]: > 100 µM (inactive)
GI50 [32]: 92.9 µM (inactive)
GI50 [33]: > 100 µM (inactive)
GI50 [34]: > 100 µM (inactive)
GI50 [35]: > 100 µM (inactive)
GI50 [36]: > 100 µM (inactive)
GI50 [37]: > 100 µM (inactive)
GI50 [38]: > 100 µM (inactive)
GI50 [39]: > 100 µM (inactive)
GI50 [40]: > 100 µM (inactive)
GI50 [41]: > 100 µM (inactive)
GI50 [42]: > 100 µM (inactive)
GI50 [43]: > 100 µM (inactive)
GI50 [44]: > 100 µM (inactive)
GI50 [45]: > 100 µM (inactive)
GI50 [46]: > 100 µM (inactive)
GI50 [47]: > 100 µM (inactive)
GI50 [48]: > 100 µM (inactive)
GI50 [49]: > 100 µM (inactive)
GI50 [50]: > 100 µM (inactive)
GI50 [51]: > 100 µM (inactive)
GI50 [52]: > 100 µM (inactive)
GI50 [53]: > 100 µM (inactive)
GI50 [54]: > 100 µM (inactive)
GI50 [55]: > 100 µM (inactive)
GI50 [56]: > 100 µM (inactive)
GI50 [57]: > 100 µM (inactive)

Oc1ccc(NCc2cc(O)ccc2O)cc1
GI50 [1]: 15 µM (inactive)
GI50 [2]: 28.4 µM (inactive)
GI50 [3]: 53.1 µM (inactive)
GI50 [4]: 16.1 µM (inactive)
GI50 [5]: 12.7 µM (inactive)
GI50 [6]: 16 µM (inactive)
GI50 [8]: 23.3 µM (inactive)
GI50 [9]: 18.5 µM (inactive)
GI50 [10]: 15.7 µM (inactive)
GI50 [11]: 16.9 µM (inactive)
GI50 [12]: 15.3 µM (inactive)
GI50 [13]: 15.6 µM
GI50 [14]: 3.03 µM (inactive)
GI50 [15]: 18.7 µM (inactive)
GI50 [16]: 13.1 µM (inactive)
GI50 [17]: 22.6 µM (inactive)
GI50 [18]: 40.9 µM (inactive)
GI50 [19]: 16.4 µM (inactive)
GI50 [20]: 19.2 µM (inactive)
GI50 [21]: 21.7 µM (inactive)
GI50 [22]: 17.1 µM (inactive)
GI50 [23]: 17.8 µM (inactive)
GI50 [24]: 13.9 µM (inactive)
GI50 [25]: 13.2 µM (inactive)
GI50 [26]: 16.4 µM (inactive)
GI50 [27]: 3.17 µM (inactive)
GI50 [28]: 3.07 µM (inactive)
GI50 [29]: 19.1 µM (inactive)
GI50 [30]: 18.9 µM (inactive)
GI50 [31]: 18.1 µM (inactive)
GI50 [32]: 18.5 µM (inactive)
GI50 [33]: 2.06 µM (inactive)
GI50 [34]: 18.4 µM (inactive)
GI50 [35]: 17.3 µM (inactive)
GI50 [36]: 16.5 µM (inactive)
GI50 [37]: 18.3 µM (inactive)
GI50 [38]: 25.8 µM (inactive)
GI50 [39]: 14.9 µM (inactive)
GI50 [40]: 4.99 µM (inactive)
GI50 [41]: 15.3 µM (inactive)
GI50 [42]: 17.2 µM (inactive)
GI50 [43]: 20.7 µM (inactive)
GI50 [44]: 23.2 µM (inactive)
GI50 [45]: 22.3 µM (inactive)
GI50 [46]: 18.2 µM (inactive)
GI50 [47]: 16.9 µM (inactive)
GI50 [48]: 17.8 µM (inactive)
GI50 [49]: 15.3 µM (inactive)
GI50 [50]: 18.5 µM (inactive)
GI50 [58]: 17.2 µM (inactive)
GI50 [51]: 11.5 µM (inactive)
GI50 [52]: 19.6 µM (inactive)
GI50 [53]: 16 µM (inactive)
GI50 [54]: 15.7 µM (inactive)
GI50 [55]: 14.9 µM (inactive)
GI50 [56]: 15.4 µM (inactive)
GI50 [57]: 14.1 µM (inactive)
